In brackets after ≈: the same amount, converted by molar mass.
Legend:
Assay in all cases: ≥ marks a high value that may be exact or a test limit, other limits are often not marked, values filed in µg/mL are converted to µM
[1] = tested on: Staphylococcus aureus ATCC 25923
[2] = tested on: Klebsiella pneumoniae ATCC 700603
[3] = tested on: Escherichia coli ATCC 25922
[4] = tested on: Pseudomonas aeruginosa ATCC 9027
Acinetobacter baumannii = tested on: Acinetobacter baumannii
[5] = tested on: Escherichia coli DH5alpha
[6] = tested on: Acinetobacter baumannii ATCC 19606
[7] = tested on: Pseudomonas aeruginosa ATCC 27853
Bacillus subtilis 168 = tested on: Bacillus subtilis 168
[8] = tested on: Bacillus subtilis ATCC 23857
Staphylococcus aureus = tested on: Staphylococcus aureus
Escherichia coli B = tested on: Escherichia coli B
Pseudomonas aeruginosa = tested on: Pseudomonas aeruginosa
[9] = tested on: Enterococcus faecalis ATCC 29212
[10] = tested on: Staphylococcus epidermidis ATCC 12228
[11] = tested on: Candida albicans ATCC 10231

SMILES | MIC [1] [µM] | MIC [3] [µM] | MIC (Bacillus subtilis 168) [µM] | MIC [8] [µM] | MIC (Staphylococcus aureus) [µM] | MIC (Escherichia coli B) [µM] | MIC (Pseudomonas aeruginosa) [µM] | other results
CC[C@H](C)[C@H](NC(=O)[C@H](C)N)C(=O)N[C@@H](CC(C)C)C(=O)N[C@@H](CCCN=C(N)N)C(=O)N[C@@H](CCCCN)C(=O)N[C@@H](C)C(=O)N[C@H](C(=O)N[C@@H](CCCN=C(N)N)C(=O)N[C@@H](CCCN=C(N)N)C(=O)N[C@@H](CC(C)C)C(=O)N[C@H](C(=O)N[C@@H](CCC(N)=O)C(=O)N[C@@H](CC(C)C)C(=O)N[C@H](C(=O)N[C@H](C(=O)N[C@@H](CO)C(=O)NCC(=O)O)C(C)C)[C@@H](C)CC)C(C)C)[C@@H](C)O [AILRKATRRLVQLIVSG] | > 25 | > 25 |  |  |  |  |  | MIC [2]: > 25 µM; MIC [4]: > 25 µM; MIC (Acinetobacter baumannii): 25 µM (≈ 47.4 µg/mL)
CC[C@H](C)[C@H](NC(=O)[C@H](CCCCN)NC(=O)[C@H](CCCCN)NC(=O)[C@@H](NC(=O)[C@@H](NC(=O)[C@H](CCCCN)NC(=O)[C@H](CCCCN)NC(=O)[C@@H](NC(=O)[C@@H](NC(=O)CN)[C@@H](C)CC)[C@@H](C)CC)[C@@H](C)CC)[C@@H](C)CC)C(N)=O [GIIKKIIKKI] | ≥ 128 | ≥ 32 | 30 (≈ 34.6 µg/mL) | 16 (≈ 18.4 µg/mL) |  |  |  | MIC [5]: ≥ 125 µM; MIC [6]: ≥ 64 µM; MIC [2]: ≥ 128 µM; MIC [7]: ≥ 64 µM
CC[C@H](C)[C@H](NC(=O)CN)C(=O)N[C@@H](CCCCN)C(=O)N[C@@H](CCCN=C(N)N)C(=O)NCC(=O)N[C@H](C(=O)N[C@H](C(=O)N[C@@H](CCCCN)C(=O)N[C@H](C(=O)N[C@H](C(=O)N[C@@H](CCCCN)C(=O)N[C@@H](CCCN=C(N)N)C(N)=O)[C@@H](C)CC)[C@@H](C)CC)[C@@H](C)CC)[C@@H](C)CC [GIKRGIIKIIKR] |  | > 128 |  | ≥ 32 |  |  |  | 
CC[C@H](C)[C@H](NC(=O)[C@H](Cc1cnc[nH]1)NC(=O)[C@H](CCCCN)NC(=O)[C@H](CC(C)C)NC(=O)[C@H](CC(C)C)NC(=O)[C@H](CO)NC(=O)[C@H](CCSC)NC(=O)[C@H](C)NC(=O)[C@H](CCCCN)NC(=O)CN)C(=O)N[C@@H](CC(C)C)C(=O)N[C@@H](CCCCN)C(N)=O [GKAMSLLKHILK] |  |  | 9.3 (≈ 12.4 µg/mL) |  | > 100 | ≥ 40 | > 100 | 
CC[C@H](C)[C@H](NC(=O)[C@H](Cc1cnc[nH]1)NC(=O)[C@H](CCCCN)NC(=O)[C@H](CC(C)C)NC(=O)[C@H](C)NC(=O)[C@H](CO)NC(=O)[C@H](CCSC)NC(=O)[C@H](Cc1c[nH]c2ccccc12)NC(=O)[C@H](CCCCN)NC(=O)CN)C(=O)N[C@@H](CC(C)C)C(=O)N[C@@H](CCCCN)C(N)=O [GKWMSALKHILK] |  |  | 2.7 (≈ 3.81 µg/mL) |  | 130 (≈ 183 µg/mL) | 20 (≈ 28.2 µg/mL) | 100 (≈ 141 µg/mL) | 
CSCC[C@H](NC(=O)[C@H](Cc1c[nH]c2ccccc12)NC(=O)[C@H](CCCCN)NC(=O)CN)C(=O)N[C@@H](CO)C(=O)N[C@@H](CC(C)C)C(=O)N[C@@H](CC(C)C)C(=O)N[C@@H](CCCCN)C(=O)N[C@@H](Cc1cnc[nH]1)C(=O)N[C@@H](Cc1c[nH]c2ccccc12)C(=O)N[C@@H](CC(C)C)C(=O)N[C@@H](CCCCN)C(N)=O [GKWMSLLKHWLK] |  |  | 1.3 (≈ 1.98 µg/mL) |  | 13.8 (≈ 21.1 µg/mL) | 3.5 (≈ 5.34 µg/mL) | 25 (≈ 38.1 µg/mL) | 
CC[C@H](C)[C@H](NC(=O)[C@H](CCC(N)=O)NC(=O)[C@H](CCCCN)NC(=O)[C@H](CC(C)C)NC(=O)[C@H](CC(C)C)NC(=O)[C@H](CO)NC(=O)[C@H](CCSC)NC(=O)[C@H](Cc1c[nH]c2ccccc12)NC(=O)[C@H](CCCCN)NC(=O)CN)C(=O)N[C@@H](CC(C)C)C(=O)N[C@@H](CCCCN)C(N)=O [GKWMSLLKQILK] |  |  | 1.8 (≈ 2.6 µg/mL) |  | 10.8 (≈ 15.6 µg/mL) | 2.5 (≈ 3.61 µg/mL) | 50 (≈ 72.2 µg/mL) | 
CC(C)C[C@H](NC(=O)[C@H](CC(C)C)NC(=O)[C@@H](NC(=O)[C@H](CCCCN)NC(=O)[C@H](C)NC(=O)[C@H](CCCN=C(N)N)NC(=O)[C@H](CCCCN)NC(=O)[C@H](C)NC(=O)[C@H](CC(C)C)NC(=O)CN)[C@@H](C)O)C(N)=O [GLAKRAKTLL] | > 512 | > 512 |  | ≥ 512 |  |  |  | MIC [6]: > 512 µM; MIC [2]: > 512 µM; MIC [7]: > 512 µM; MIC [9]: > 512 µM; MIC [10]: > 512 µM
CC(C)C[C@H](NC(=O)[C@H](Cc1ccc(O)cc1)NC(=O)[C@H](CCCCN)NC(=O)[C@H](CC(C)C)NC(=O)[C@H](CC(C)C)NC(=O)[C@H](CCCCN)NC(=O)[C@H](CCCCN)NC(=O)[C@H](Cc1ccccc1)NC(=O)[C@H](CC(C)C)NC(=O)[C@H](CCCN=C(N)N)NC(=O)[C@@H](N)CCCCN)C(=O)N[C@@H](CCCN=C(N)N)C(=O)N[C@@H](CCCCN)C(=O)N[C@@H](Cc1ccccc1)C(=O)O [KRLFKKLLKYLRKF] | 0.531 (≈ 1 µg/mL) | 0.531 (≈ 1 µg/mL) |  |  |  |  | 2.13 (≈ 4 µg/mL) | MIC [6]: 1.06 µM (≈ 2 µg/mL); MIC [7]: 1.06 µM (≈ 2 µg/mL); MIC [11]: 2.13 µM (≈ 4 µg/mL); MIC (Acinetobacter baumannii): 1.06 µM (≈ 2 µg/mL)
CC[C@H](C)[C@H](NC(=O)CNC(=O)[C@H](CCCN=C(N)N)NC(=O)[C@H](Cc1ccc(O)cc1)NC(=O)[C@@H](NC(=O)[C@@H](NC(=O)[C@H](CCCN=C(N)N)NC(=O)[C@H](Cc1ccccc1)NC(=O)[C@@H](NC(=O)[C@H](Cc1c[nH]c2ccccc12)NC(=O)[C@H](Cc1c[nH]c2ccccc12)NC(=O)[C@@H](N)CCCCN)C(C)C)C(C)C)C(C)C)C(=O)N[C@H](C(=O)N[C@@H](Cc1ccc(O)cc1)C(=O)N[C@@H](CCCN=C(N)N)C(=O)N[C@@H](CCCN=C(N)N)C(=O)N[C@H](C(=O)N[C@@H](CCCN=C(N)N)C(=O)N[C@@H](Cc1c[nH]c2ccccc12)C(=O)N[C@@H](CCCCN)C(=O)O)C(C)C)C(C)C [KWWVFRVVYRGIVYRRVRWK] |  |  |  |  |  |  |  | MIC [5]: 12.5 µM (≈ 34.4 µg/mL)
CC[C@H](C)[C@H](NC(=O)[C@H](CCCCN)NC(=O)[C@H](CCCCN)NC(=O)[C@H](C)NC(=O)[C@@H](NC(=O)[C@H](C)NC(=O)[C@H](CC(C)C)NC(=O)[C@H](C)NC(=O)[C@H](C)NC(=O)[C@H](CCCCN)NC(=O)[C@H](CC(C)C)NC(=O)[C@H](CC(N)=O)NC(=O)[C@@H](N)CC(C)C)C(C)C)C(=O)N[C@@H](CC(C)C)C(N)=O [LNLKAALAVAKKIL] | 32 (≈ 46.9 µg/mL) | 8 (≈ 11.7 µg/mL) |  | 8 (≈ 11.7 µg/mL) |  |  |  | MIC [2]: 16 µM (≈ 23.4 µg/mL); MIC [4]: 32 µM (≈ 46.9 µg/mL)
CC[C@H](C)[C@H](NC(=O)CNC(=O)[C@@H](N)CCSC)C(=O)N[C@H](C(=O)N[C@@H](C)C(=O)NCC(=O)N[C@H](C(=O)N[C@H](C(=O)N[C@@H](CCCCN)C(=O)N[C@@H](Cc1ccccc1)C(=O)N[C@H](C(=O)N[C@@H](CCCCN)C(=O)NCC(=O)N[C@@H](CC(C)C)C(=O)N[C@H](C(=O)N[C@@H](CCC(=O)O)C(=O)N[C@@H](CCCCN)C(=O)N[C@@H](Cc1ccccc1)C(=O)N[C@H](C(=O)NCC(=O)N[C@@H](CCCCN)C(=O)O)[C@@H](C)O)[C@@H](C)CC)[C@@H](C)CC)[C@@H](C)CC)[C@@H](C)CC)[C@@H](C)CC [MGIIAGIIKFIKGLIEKFTGK] |  | > 128 |  | ≥ 128 |  |  |  | 
CC[C@H](C)[C@H](NC(=O)[C@H](CCCCN)NC(=O)[C@H](CCCCN)NC(=O)[C@H](Cc1c[nH]c2ccccc12)NC(=O)[C@@H](NC(=O)[C@@H](N)CC(N)=O)C(C)C)C(=O)N[C@@H](CC(C)C)C(=O)NCC(=O)N[C@@H](CCCCN)C(=O)N[C@H](C(=O)N[C@H](C(=O)N[C@@H](CCCCN)C(=O)N[C@H](C(=O)N[C@H](C(=O)N[C@@H](CCCCN)C(N)=O)C(C)C)C(C)C)[C@@H](C)CC)[C@@H](C)CC [NVWKKILGKIIKVVK] |  |  | 0.7 (≈ 1.24 µg/mL) |  | 9 (≈ 15.9 µg/mL) | 1.4 (≈ 2.47 µg/mL) | 23.1 (≈ 40.8 µg/mL) | 
CC[C@H](C)[C@H](NC(=O)[C@H](Cc1cnc[nH]1)NC(=O)[C@H](CCCCN)NC(=O)[C@H](CC(C)C)NC(=O)[C@H](CC(C)C)NC(=O)[C@H](CO)NC(=O)[C@H](CCSC)NC(=O)[C@H](Cc1c[nH]c2ccccc12)NC(=O)[C@H](CCCCN)NC(=O)[C@@H](N)CO)C(=O)N[C@@H](CC(C)C)C(=O)N[C@@H](CCCCN)C(N)=O [SKWMSLLKHILK] |  |  | 1.1 (≈ 1.63 µg/mL) |  | 9.2 (≈ 13.6 µg/mL) | 2.3 (≈ 3.41 µg/mL) | 50 (≈ 74.1 µg/mL) | 
CC[C@H](C)[C@H](NC(=O)[C@H](CCCCN)NC(=O)[C@@H]1CCCN1C(=O)[C@H](CC(C)C)NC(=O)[C@@H](NC(=O)[C@H](CCCCN)NC(=O)[C@H](CCCCN)NC(=O)[C@H](Cc1c[nH]c2ccccc12)NC(=O)[C@H](CC(N)=O)NC(=O)[C@@H](N)C(C)C)C(C)C)C(=O)N[C@H](C(=O)N[C@@H](CCCCN)C(=O)N[C@H](C(=O)N[C@@H](C)C(=O)N[C@@H](CCCCN)C(N)=O)C(C)C)[C@@H](C)CC [VNWKKVLPKIIKVAK] |  |  | 0.9 (≈ 1.59 µg/mL) |  | > 100 | 5 (≈ 8.82 µg/mL) | 100 (≈ 176 µg/mL) | 

Reference: DBAASP
